Results reported in patent US20100285145A1, “GPR 119 MODULATORS” (PFIZER INC, priority 2009, published 2010).
Several values for one entry are separate records, joined by “and”; a condition that tells them apart may be missing. Equal values may be shown once.

Columns and labels:
[1] = target: T1, human GPR119 (Homo sapiens, UniProt Q8TDV5); test: β-Lactamase reporter functional assay (hGPR119 HEK293-CRE beta-lactamase cells); format: cell-based; parameters: host or cells: HEK293-CRE beta-lactamase; Emax: dose or concentration left out as unconfirmed; conditions: for EC50: hGPR119 HEK293-CRE beta-lactamase cells, 16 h incubation, each line a separate determination, read-out: Human B-lactamase Functional EC50; for Intrinsic Activity (Human B-lactamase) / Emax: percent of maximal activity relative to standard GPR119 agonist at 10 micromolar; for Emax: read-out: Intrinsic Activity (Human B-lactamase)
T1 sequence (Q8TDV5 1-335): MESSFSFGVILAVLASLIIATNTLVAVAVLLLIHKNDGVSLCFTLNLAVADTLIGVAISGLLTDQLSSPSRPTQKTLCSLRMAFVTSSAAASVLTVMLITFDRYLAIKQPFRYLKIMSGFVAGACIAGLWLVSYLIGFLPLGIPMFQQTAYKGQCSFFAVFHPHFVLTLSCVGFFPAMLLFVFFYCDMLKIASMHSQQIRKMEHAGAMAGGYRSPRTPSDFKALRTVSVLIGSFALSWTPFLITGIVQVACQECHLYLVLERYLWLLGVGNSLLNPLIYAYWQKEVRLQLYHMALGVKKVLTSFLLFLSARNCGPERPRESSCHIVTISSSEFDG
Experimental: The assay for GPR119 agonists utilizes a cell-based (hGPR119 HEK293-CRE beta-lactamase) reporter construct where agonist activation of human GPR119 is coupled to beta-lactamase production via a cyclic AMP response element (CRE). GPR119 activity is then measured utilizing a FRET-enabled beta-lactamase substrate, CCF4-AM (Live Blazer FRET-B/G Loading kit, Invitrogen cat #K1027). Specifically, hGPR119-HEK-CRE-beta-lactamase cells (Invitrogen 2.5×10^7/mL) were removed from liquid nitrogen storage, and diluted in plating medium (Dulbecco's modified Eagle medium high glucose (DMEM; Gibco Cat # 11995-065), 10% heat inactivated fetal bovine serum (HIFBS; Sigma Cat # F4135), 1×MEM Nonessential amino acids (Gibco Cat # 15630-080), 25 mM HEPES pH 7.0 (Gibco Cat # 15630-080), 200 nM potassium clavulanate (Sigma Cat # P3494). The cell concentration was adjusted using cell plating medium and 50 microL of this cell suspension ([…]) was added into each well of a black, clear bottom, poly-d-lysine coated 384-well plate (Greiner Bio-One cat# 781946) and incubated at 37 degrees Celsius in a humidified environment containing 5% carbon dioxide. After 4 hours the plating medium was removed and replaced with 40 microL of assay medium (Assay medium is plating medium without potassium clavulanate and HIFBS). Varying concentrations of each compound to be tested was then added in a volume of 10 microL (final DMSO ≦0.5%) and the cells were incubated for 16 hours at 37 degrees Celsius in a humidified environment containing 5% carbon dioxide. Plates were removed from the incubator and allowed to equilibrate to room temperature for approximately 15 minutes. 10 microL of 6×CCF4/AM working dye solution (prepared according to instructions in the Live Blazer FRET-B/G Loading kit, Invitrogen cat #K1027) was added per well and incubated at room temperature for 2 hours in the dark. Fluorescence was measured on an EnVision fluorimetric plate reader, excitation 405 nm, emission 460 nm/535 nm. EC50 determinations were made from agonist-response curves analyzed with a curve fitting program using a 4-parameter logistic dose-response equation.

[2] = tested on: male Wistar rats; test: Intraperitoneal glucose tolerance test (IPGTT); format: in vivo; conditions: rat
Description: All in vivo protocols were approved by the Pfizer's Animal Welfare Committee. Naive male Wistar rats (225-250 g body weight on receipt) were obtained from Harlan Laboratories (Indianapolis, Ind.), were pair housed in hanging plastic caging on Sani-chips sawdust bedding, and fed ad libitum on Purina 5001 chow. The rats were housed under a controlled light cycle (light from 6 am to 6 pm) at controlled temperature and humidity conditions. Rats were acclimated to the facility for at least 1 week prior to study.
Rats were assigned (n=8/group) to vehicle or one of three dose groups ([…]) according to body weight on day −0.1 to ensure that each group had equal group mean body weight values. The rats were fasted overnight in clean cages overnight (˜15 hours) prior to the intra-peritoneal glucose tolerance test. Body weights were recorded on the morning of the study (post fasting) for dose volume calculation. Blood samples were collected from all rats prior to dosing with vehicle (0.5% methylcellulose) or test compound via oral gavage (5 mL/kg). Sixty minutes later rats were bled and immediately dose with an IP dose of glucose (2 g/kg). The rats were re-bled at 15, 30, 60 and 120 minutes post-glucose load. Blood samples (˜250 μL/time point) were collected into EDTA tubes with aprotinin/DPPIVi (0.6 TIU/20 μL per mL whole blood), for the determination of plasma glucose, insulin, and total amide GLP-1 concentrations. Blood tubes were inverted several times immediately following collection and placed on ice, then spun at 14,000 rpm in a refrigerated centrifuge for 5 minutes. Plasma samples were analyzed for glucose levels using a Roche 912 clinical chemistry analyzer and plasma insulin concentrations were determined using the Alpco Ultra-Sensitive Insulin Rat Elisa.
The results are presented as mean+/−SEM (standard error of the mean) unless otherwise stated. Statistical evaluation of the data is carried out using one-way analysis of variance (ANOVA) with appropriate post-hoc analysis between vehicle and treatment group. Differences compared to vehicle with a P<0.05 were considered statistically significant using Dunnett's T-test.
IPGTT studies were performed with Example 3, either prepared as described above (dosed as a suspension in 0.5% methylcellulose) or prepared as an amorphous dispersion (25% active) with hydroxyproylmethylcellulose-acetate succinate (dosed as a suspension in 0.5% methylcellulose/0.1% polysorbate 80). […] Statistical significance is based on a comparison to the vehicle group.

[3] = 20 mg/kg SDD (amorphous dispersion 25% active with HPMC-acetate succinate)

Structure (SMILES) | EC50 [1] | Intrinsic Activity (Human B-lactamase) [1] | Emax [1] [%] | further results
CC(C)OC(=O)N1CCC(Oc2ncnc(N3CCc4cc(S(C)(=O)=O)ccc43)c2C#N)CC1 [Example 6, Isopropyl 4-({5-cyano-6-[5-(methylsulfonyl)-2,3-dihydro-1H-indol-1-yl]pyrimidin-4-yl}oxy)piperidine-1-carboxylate] | 7.8 nM and 6.45 nM | 103% | 99.9 | –
CC(C)OC(=O)N1CCC(Oc2cc(N3CCc4cc(C#N)ccc43)ncn2)CC1 [Example 10, Isopropyl 4-{[6-(5-cyano-2,3-dihydro-1H-indol-1-yl)pyrimidin-4-yl]oxy}piperidine-1-carboxylate] | 46.7 nM and 37.2 nM | 85.8% | 90 | –
CC(C)OC(=O)N1CCC(Oc2cc(N3CCc4ncccc43)ncn2)CC1 [Example 12, Isopropyl 4-{[6-(2,3-dihydro-1H-pyrrolo[3,2-b]pyridin-1-yl)pyrimidin-4-yl]oxy}piperidine-1-carboxylate] | 2100 nM and 2160 nM | 121% | 110 | –
CC(C)OC(=O)N1C[C@H]2COC[C@@H](C1)[C@H]2Oc1cc(N2CCc3cc(S(C)(=O)=O)ccc32)ncn1 [Example 1, Isopropyl 9-anti-({6-[5-(methylsulfonyl)-2,3-dihydro-1H-indol-1-yl]pyrimidin-4-yl}oxy)-3-oxa-7-azabicyclo[3.3.1]nonane-7-carboxylate] | 75.9 nM and 72.3 nM | 109% | 107 | –
Cc1c(OC2CCN(C(=O)OC(C)C)CC2)ncnc1N1CCc2ncccc21 [Example 13, Isopropyl 4-{[6-(2,3-dihydro-1H-pyrrolo[3,2-b]pyridin-1-yl)-5-methylpyrimidin-4-yl]oxy}-piperidine-1-carboxylate] | 236 nM and 203 nM | 97.8% | 92.6 | –
CC(C)OC(=O)N1CCC(Oc2cc(N3CCc4cc(S(=O)(=O)CCO)ccc43)ncn2)CC1 [Example 11, Isopropyl 4-[(6-{5-[(2-hydroxyethyl)sulfonyl]-2,3-dihydro-1H-indol-1-yl}pyrimidin-4-yl)oxy]piperidine-1-carboxylate] | 40.7 nM | – | 103 | –
Cc1c(O[C@@H]2[C@@H]3COC[C@H]2CN(C(=O)OC(C)C)C3)ncnc1N1CCc2cc(S(C)(=O)=O)ccc21 [Example 23, Isopropyl (9-syn)-9-({5-methyl-6-[5-(methylsulfonyl)-2,3-dihydro-1H-indol-1-yl]pyrimidin-4-yl}oxy)-3-oxa-7-azabicyclo[3.3.1]nonane-7-carboxylate] | – | – | 97.9 | –
CC(C)OC(=O)N1CCC(Oc2cc(N3CCc4cc(C(=O)N(C)C)ccc43)ncn2)CC1 [Example 9, 4-[6-(5-Dimethylcarbamoyl-2,3-dihydroindol-1-yl)-pyrimidin-4-yloxy]-piperidine-1-carboxylic acid isopropyl ester] | 37.3 nM and 32.8 nM | 101% | 100 | –
Cc1c(OC2CCN(C(=O)OC(C)C)CC2)ncnc1N1CCc2cc(S(C)(=O)=O)ccc21 [Example 8, Isopropyl 4-({5-methyl-6-[5-(methylsulfonyl)-2,3-dihydro-1H-indol-1-yl]pyrimidin-4-yl}oxy)piperidine-1-carboxylate] | 43.5 nM and 57.4 nM | 99.2% | 100 | –
CC(C)(C)OC(=O)N1CCC(Oc2cc(N3CCc4cc(S(C)(=O)=O)ccc43)ncn2)C(F)C1 (racemic) [Example 15, tert-Butyl 3-fluoro-4-({6-[5-(methylsulfonyl)-2,3-dihydro-1H-indol-1-yl]pyrimidin-4-yl}oxy)piperidine-1-carboxylate] | 7.2 nM and 4.09 nM and 2.82 nM | 113% and 112% | 107 | –
CC(C)OC(=O)N1CCC(Oc2cc(N3CCc4cc(S(C)(=O)=O)ccc43)ncn2)CC1 [Example 3, Isopropyl 4-({6-[5-(methylsulfonyl)-2,3-dihydro-1H-indol-1-yl]pyrimidin-4-yl}oxy)piperidine-1-carboxylate] | 12.6 nM and 29.7 nM and 13.8 nM and 12.3 nM | 102% and 81.8% and 93.4% and 107% | – | Glucose 0-120 min AUC (percent vehicle response) [2, 3]: ++89 percent vehicle response; Insulin AUC (0-60 min) (percent vehicle response) [2, 3]: 118 percent vehicle response; Glucose 0-120 min AUC (percent vehicle response) ([2]; 20 mg/kg in 0.5% methylcellulose, IP glucose administered 30 minutes post dose): ++85 percent vehicle response
Cc1c(O[C@H]2CCN(C(=O)OC3(C)CC3)C[C@H]2F)ncnc1N1CCc2ncccc21 [Example 17, 1-Methylcyclopropyl (3R,4S)-4-{[6-(2,3-dihydro-1H-pyrrolo[3,2-b]pyridin-1-yl)-5-methylpyrimidin-4-yl]oxy}-3-fluoropiperidine-1-carboxylate] | – | – | – | Insulin 0-60 min AUC (percent vehicle response) ([2]; 1 mg/kg oral): 126 percent vehicle response; Total Amide GLP-1 0-120 min AUC (percent vehicle response) ([2]; 1 mg/kg oral): 235 percent vehicle response; Glucose 0-120 min AUC (percent vehicle response) ([2]; 1 mg/kg oral, 60 min before IP glucose 2 g/kg): 88 percent vehicle response; Insulin 0-60 min AUC (percent vehicle response) ([2]; 10 mg/kg oral): ++162 percent vehicle response; Total Amide GLP-1 0-120 min AUC (percent vehicle response) ([2]; 10 mg/kg oral): 237 percent vehicle response; Glucose 0-120 min AUC (percent vehicle response) ([2]; 10 mg/kg oral, 60 min before IP glucose 2 g/kg): ++69 percent vehicle response
